Paper PMC11643744, “New Conjugates of Vancomycin with Cell-Penetrating Peptides—Synthesis, Antimicrobial Activity, Cytotoxicity, and BBB Permeability Studies” (Molecules, 2024)
Converted amounts (≈) assume the structure as drawn.

Legend:
S. aureus ATCC 29213 = assay: microbe, parasite or virus in culture; assay type: cell-based, Staphylococcus aureus; conditions: reference strain; for MIC: read-out: MIC S. aureus ATCC 29213
Protocol: (§1) The antimicrobial activity of the synthesized compounds was evaluated against four reference bacterial strains: Staphylococcus aureus (ATCC 29213), Enterococcus faecalis (ATCC 29212), Escherichia coli (ATCC 25922), and Pseudomonas aeruginosa (ATCC 27853), which are commonly used for determining antibacterial activity. In addition, two clinical strains, S. aureus (MRSA) and E. faecium (VRE), were included in the study. The bacterial strains were inoculated from Selectrol discs (Biomaxima SA, Lublin, Poland) onto blood agar (Graso Biotech, Starogard Gdański, Poland) and incubated at 37 °C for 24 h. Before testing, the strains were cultured aerobically on blood agar at 37 °C for 24 h.
(§2) The susceptibility of microorganisms to the synthesized compounds was determined using the broth microdilution assay, following the guidelines outlined by CLSI [30]. The final concentrations of the tested compounds in Mueller–Hinton broth, in 96-well plates (VWR International Sp. z o.o., Gdańsk, Poland), ranged from 0.125 to 256 mg/L. To prepare the bacterial suspension, bacteria from the overnight culture on blood agar were diluted in sterile 0.9% NaCl to achieve a turbidity equivalent to a 0.5 McFarland standard. The adjusted inoculum suspension was further diluted in Mueller–Hinton broth so that after inoculation, each well contained approximately 5 × 10^5 CFU/mL. Aliquots (5 µL) of bacterial suspension were added to each solution. The sterility control (containing the broth) and the growth control (containing the reference strain in broth without the tested compound) were also set up. The antibiotics vancomycin and gentamicin were used as a control. The plates were incubated at 37 °C under aerobic conditions. The results are expressed as the MIC of the tested compounds, which was defined as the lowest concentration at which no visible growth of bacteria (no turbidity) was observed. The assay was performed in triplicate.

[1] = system: S. aureus MRSA (clinical isolate no 203); assay: microbe, parasite or virus in culture; assay type: cell-based, Staphylococcus aureus; conditions: methicillin-resistant clinical isolate no 203; read-out: MIC S. aureus MRSA
Protocol: as §1, §2

E. faecalis ATCC 29212 = assay: microbe, parasite or virus in culture; assay type: cell-based, Enterococcus faecalis; conditions: reference strain; for MIC: read-out: MIC E. faecalis ATCC 29212
Protocol: as §1, §2

E. coli ATCC 25922 = assay: microbe, parasite or virus in culture; assay type: cell-based, Escherichia coli; conditions: reference strain
Protocol: as §1, §2

[2] = system: E. faecium VRE (clinical isolate UCK 7979384); assay: microbe, parasite or virus in culture; assay type: cell-based; conditions: vancomycin-resistant clinical isolate UCK 7979384; read-out: MIC E. faecium VRE
Protocol: as §1, §2

[3] = system: normal human fibroblasts, BJ line (CRL-2522); assay: Neutral red cytotoxicity assay; conditions: 24 h; for effect on cell viability: across the tested concentration range
Protocol: Normal human fibroblasts, BJ line (CRL-2522™), Eagle’s Minimum Essential Medium (EMEM), and fetal bovine serum (FBS) were obtained from ATCC (Manassas, VA, USA). Cells were grown following ATCC guidelines in an EMEM medium supplemented with 10% FBS at 37 °C in a humidified atmosphere of 95% air and 5% CO2 in a HeraCell 150 incubator (Heraeus, Hanau, Germany).
The assay was performed as per previously published protocols with slight modifications. In brief, BJ cells were plated in 96-well tissue culture plates (Nest Scientific Biotechnology, Wuxi, China) at a density of 6 × 10^3 cells per well and allowed to attach for 24 h in EMEM supplemented with 10% FBS. After the incubation period, the medium was removed, and 10% dimethyl sulfoxide (DMSO)-treated cells (Sigma-Aldrich, St. Louis, MO, USA) were used as a positive control, while nontreated cells served as a negative control.
The cells were treated with peptides suspended in EMEM medium supplemented with 10% FBS and incubated for 24 h at 37 °C in a humidified atmosphere of 95% air and 5% CO2. After the incubation, the supernatants were discarded and replaced with 100 µL of non-supplemented EMEM containing 0.33% neutral red (Sigma-Aldrich) diluted 1:40. The cells were incubated for an additional 2 h at 37 °C. Following incubation, the neutral red medium was removed, and the cells were washed with 100 µL of phosphate-buffered saline (PBS) per well.
To extract the dye into the solution, the cells were treated with 150 µL of a solution containing 50% ethanol (Alchem, Torun, Poland), 49% distilled H2O, and 1% acetic acid (Alchem, Torun, Poland) and incubated under shaking at 37 °C for 10 min. Absorbance was measured at 540 nm using a Synergy H1 plate reader (BioTek Instruments, Winooski, VT, USA). The assay was performed in triplicate to ensure reproducibility.

PAMPA-BBB assay = conditions: 20 h incubation; for R, mass retention: mean ± SEM; for Papp at 20 h, 20 µM: pig, PAMPA, pH 7.4, Pe, effective permeability coefficient, pH 7.4, mean ± SEM
Source text: This assay utilized a 96-well plate assembly consisting of a filter plate pre-coated with polar brain lipids (donor plate) and a receiver plate (acceptor plate). The phospholipid mixture used to coat the membrane was extracted from porcine polar brain lipids, with the following composition: 12.6% phosphatidylcholine, 33.1% phosphatidylethanolamine, 18.5% phosphatidylserine, 4.1% phosphatidylinositol, 0.8% phosphatidic acid, and 30.9% of other compounds, including cerebrosides, sulfatides, and pigments.
In each well of the donor filtration plate (Multiscreen Filter Plate, PVDF with a pore size of 0.45 µm), 5 µL of the phospholipid mixture in n-dodecane (20 mg/mL) was carefully applied to form the artificial membrane. After coating, 200 µL of phosphate-buffered saline (PBS at pH 7.4) containing 5% dimethyl sulfoxide (DMSO) as a co-solvent, and the test compound (at a concentration of 20 µM) was added to each well of the donor plate (in triplicate). […] The plate lid was then replaced and the resulting assembled donor–acceptor plates were incubated at room temperature for 20 h. After this time, the donor plate was removed and solutions from each well of both acceptor and donor plates were collected for further analysis. The concentrations of the tested compounds were determined by LC-MS. The analysis was conducted by UHPLC-MS system (Shimadzu Nexera X2 with LCMS-2020 detector) using a ReproSil Pure 120 ODS-3 column (Dr. Maisch GmbH, 100 × 2 mm, 2.4 µm particle size) with several gradients of ACN with 0.1% FA and 0.05% TFA at a flow rate of 0.3 mL/min. The eluted solution was monitored by an ESI-MS detector operated in a selected ion monitoring mode (SIM). […] CE=CD×VD+CA×VA/VD+VA

| Compound | MIC (S. aureus ATCC 29213) [µM] | MIC [1] [µM] | MIC (E. faecalis ATCC 29212) [µM] | MIC (E. coli ATCC 25922) [µM] | MIC [2] [µM] | effect on cell viability [3] | R, mass retention (PAMPA-BBB assay) [%] | concentration above which cytotoxicity was shown [3] | Papp at 20 h, 20 µM (PAMPA-BBB assay) [×10⁻⁶ cm/s] | MIC S. aureus ATCC 29213 (S. aureus ATCC 29213) [µg/mL] | MIC E. faecalis ATCC 29212 (E. faecalis ATCC 29212) [µg/mL] | MIC E. coli ATCC 25922 (E. coli ATCC 25922) [µg/mL] |
| --- | --- | --- | --- | --- | --- | --- | --- | --- | --- | --- | --- | --- |
| CC[C@H](C)[C@H](NC(=O)[C@H](CCCCN)NC(=O)[C@H](CCCCN)NC(=O)[C@H](C)NC(=O)[C@H](CC(C)C)NC(=O)[C@H](C)NC(=O)[C@H](C)NC(=O)[C@H](CC(C)C)NC(=O)[C@H](C)NC(=O)[C@H](CCCCN)NC(=O)[C@H](CC(C)C)NC(=O)[C@H](CC(N)=O)NC(=O)[C@@H](NC(=O)[C@H](CCCCN)NC(=O)CNC(=O)[C@H](CC(C)C)NC(=O)[C@H](CC(C)C)NC(=O)[C@H](Cc1ccc(O)cc1)NC(=O)CNC(=O)[C@H](C)N)[C@@H](C)CC)C(=O)N[C@@H](CC(C)C)C(N)=O [compound 1, TP10] | 14.7 (≈ 32.1 µg/mL) | 3.67 (≈ 8.01 µg/mL) | 29.3 (≈ 63.9 µg/mL) | 14.7 (≈ 32.1 µg/mL) |  |  |  |  |  |  |  |  |
| C#CC(=O)N[C@@H](Cc1ccc(O)cc1)C(=O)NCC(=O)N[C@@H](CCCNC(=N)N)C(=O)N[C@@H](CCCCN)C(=O)N[C@@H](CCCCN)C(=O)N[C@@H](CCCNC(=N)N)C(=O)N[C@@H](CCCNC(=N)N)C(=O)N[C@@H](CCC(N)=O)C(=O)N[C@@H](CCCNC(=N)N)C(=O)N[C@@H](CCCNC(=N)N)C(=O)N[C@@H](CCCNC(=N)N)C(N)=O [compound 4] | 4.97 (≈ 8.01 µg/mL) | 19.9 (≈ 32.1 µg/mL) | 159 (≈ 256 µg/mL) | 79.5 (≈ 128 µg/mL) | 19.9 (≈ 32.1 µg/mL) | did not significantly affect cell viability | 3.3 ± 0.7 |  |  |  |  |  |
| CN[C@H](CC(C)C)C(=O)N[C@H]1C(=O)N[C@@H](CC(N)=O)C(=O)N[C@H]2C(=O)N[C@H]3C(=O)N[C@H](C(=O)N[C@H](C(=O)NCCOCCOCCOCCn4cc(C(=O)N[C@@H](Cc5ccc(O)cc5)C(=O)N[C@@H](C)C(=O)N[C@@H](CCCNC(=N)N)C(=O)N[C@@H](C)C(=O)N[C@@H](C)C(=O)N[C@@H](C)C(=O)N[C@@H](CCCNC(=N)N)C(=O)N[C@@H](CCC(N)=O)C(=O)N[C@@H](C)C(=O)N[C@@H](CCCNC(=N)N)C(=O)N[C@@H](C)C(N)=O)nn4)c4cc(O)cc(O)c4-c4cc3ccc4O)[C@H](O)c3ccc(c(Cl)c3)Oc3cc2cc(c3O[C@@H]2O[C@H](CO)[C@@H](O)[C@H](O)[C@H]2O[C@H]2C[C@](C)(N)[C@H](O)[C@H](C)O2)Oc2ccc(cc2Cl)[C@H]1O [compound 10] |  |  |  |  |  |  | 2.0 ± 0.6 | above 16 µg/mL | 0.01 ± 0.003 |  |  |  |
| CN[C@H](CC(C)C)C(=O)N[C@H]1C(=O)N[C@@H](CC(N)=O)C(=O)N[C@H]2C(=O)N[C@H]3C(=O)N[C@H](C(=O)N[C@H](C(=O)O)c4cc(O)cc(O)c4-c4cc3ccc4O)[C@H](O)c3ccc(c(Cl)c3)Oc3cc2cc(c3O[C@@H]2O[C@H](CO)[C@@H](O)[C@H](O)[C@H]2O[C@H]2C[C@](C)(NC(=O)CCOCCOCCOCCOCCn3cc(C(=O)N[C@@H](Cc4ccc(O)cc4)C(=O)N[C@@H](C)C(=O)N[C@@H](CCCNC(=N)N)C(=O)N[C@@H](C)C(=O)N[C@@H](C)C(=O)N[C@@H](C)C(=O)N[C@@H](CCCNC(=N)N)C(=O)N[C@@H](CCC(N)=O)C(=O)N[C@@H](C)C(=O)N[C@@H](CCCNC(=N)N)C(=O)N[C@@H](C)C(N)=O)nn3)[C@H](O)[C@H](C)O2)Oc2ccc(cc2Cl)[C@H]1O [compound 11] |  |  |  |  |  |  | 32.7 ± 0.9 | > 64 µg/mL | 0.066 ± 0.007 |  |  |  |
| CN[C@H](CC(C)C)C(=O)N[C@H]1C(=O)N[C@@H](CC(N)=O)C(=O)N[C@H]2C(=O)N[C@H]3C(=O)N[C@H](C(=O)N[C@H](C(=O)NCCSSCCn4cc(C(=O)N[C@@H](Cc5ccc(O)cc5)C(=O)N[C@@H](C)C(=O)N[C@@H](CCCNC(=N)N)C(=O)N[C@@H](C)C(=O)N[C@@H](C)C(=O)N[C@@H](C)C(=O)N[C@@H](CCCNC(=N)N)C(=O)N[C@@H](CCC(N)=O)C(=O)N[C@@H](C)C(=O)N[C@@H](CCCNC(=N)N)C(=O)N[C@@H](C)C(N)=O)nn4)c4cc(O)cc(O)c4-c4cc3ccc4O)[C@H](O)c3ccc(c(Cl)c3)Oc3cc2cc(c3O[C@@H]2O[C@H](CO)[C@@H](O)[C@H](O)[C@H]2O[C@H]2C[C@](C)(N)[C@H](O)[C@H](C)O2)Oc2ccc(cc2Cl)[C@H]1O [compound 12] |  |  |  |  |  | did not significantly affect cell viability | 12.7 ± 2.2 |  | 0.036 ± 0.004 |  |  |  |
| C#CC(=O)N[C@@H](CCCNC(=N)N)C(=O)N[C@@H](CCCNC(=N)N)C(=O)N[C@@H](CCCNC(=N)N)C(=O)N[C@@H](CCCNC(=N)N)C(=O)N[C@@H](CCCNC(=N)N)C(=O)N[C@@H](CCCNC(=N)N)C(=O)N[C@@H](CCCNC(=N)N)C(=O)N[C@@H](CCCNC(=N)N)C(=O)N[C@@H](CCCNC(=N)N)C(N)=O [compound 14] | 21.7 (≈ 32 µg/mL) | 2.71 (≈ 4 µg/mL) | 87 (≈ 128 µg/mL) | 43 (≈ 63.4 µg/mL) | 21.7 (≈ 32 µg/mL) |  | 8.0 ± 1.2 |  |  |  |  |  |
| CN[C@H](CC(C)C)C(=O)N[C@H]1C(=O)N[C@@H](CC(N)=O)C(=O)N[C@H]2C(=O)N[C@H]3C(=O)N[C@H](C(=O)N[C@H](C(=O)NCCSSCCn4cc(C(=O)N[C@@H](CCCNC(=N)N)C(=O)N[C@@H](CCCNC(=N)N)C(=O)N[C@@H](CCCNC(=N)N)C(=O)N[C@@H](CCCNC(=N)N)C(=O)N[C@@H](CCCNC(=N)N)C(=O)N[C@@H](CCCNC(=N)N)C(=O)N[C@@H](CCCNC(=N)N)C(=O)N[C@@H](CCCNC(=N)N)C(=O)N[C@@H](CCCNC(=N)N)C(N)=O)nn4)c4cc(O)cc(O)c4-c4cc3ccc4O)[C@H](O)c3ccc(c(Cl)c3)Oc3cc2cc(c3O[C@@H]2O[C@H](CO)[C@@H](O)[C@H](O)[C@H]2O[C@H]2C[C@](C)(N)[C@H](O)[C@H](C)O2)Oc2ccc(cc2Cl)[C@H]1O [compound 17] | 1.30 (≈ 4.01 µg/mL) |  | 2.59 (≈ 7.99 µg/mL) | >83 |  |  | 20.7 ± 0.3 |  |  | 4 (≈ 1.3 µM) | 8 (≈ 2.59 µM) | >256 |
